Values joined by “and” are separate entries in the source; they are usually repeats but may differ in a detail not shown here. Equal values may be shown once. Read-outs that look alike come from different tables or passages of the source.
C=CC(=O)N1CCC([C@@H]2CCNc3c(C(N)=O)c(-c4ccc(Oc5ccccc5)cc4)nn32)CC1 [zanubrutinib, (S)-7-(1-acryloylpiperidin-4-yl)-2-(4-phenoxyphenyl)-4,5,6,7-tetrahydropyrazolo[1,5-a]pyrimidine-3-carboxamide]
Anemia AESI ≥Grade 3, EAIR (After Coadministration): 0.18 per 100 person-months | Anemia AESI, EAIR (After Coadministration): 0.53 per 100 person-months | Atrial fibrillation PT (After Coadministration): 2.8% | Atrial fibrillation and flutter AESI Grade ≥3, EAIR (After Coadministration): 0.18 per 100 person-months | Atrial fibrillation and flutter AESI Grade ≥3, patients (After Coadministration): 3.7% | Atrial fibrillation and flutter AESI, EAIR (After Coadministration): 0.23 per 100 person-months | Atrial fibrillation and flutter AESI, patients (After Coadministration): 4.7% | Atrial flutter PT (After Coadministration): 1.9% | Basal cell carcinoma (After Coadministration): 5.6% | Basal cell carcinoma leading to dose interruption (After Coadministration): 1 (0.9%) n (%) | Basal cell carcinoma ≥Grade 3 (After Coadministration): 1 (0.9%) n (%) | External ear neoplasm malignant leading to dose interruption (After Coadministration): 0 (0.0%) n (%) | Febrile neutropenia PT (After Coadministration): 3.7% | Grade 3 or higher AESI (After Coadministration): 48 (44.9) n (%) | Haematuria (hemorrhage AESI) (After Coadministration): 4.7% | Haematuria (major hemorrhage) (After Coadministration): 0 (0.0%) n (%) | Haematuria (major hemorrhage) ≥Grade 3 (After Coadministration): 0 (0.0%) n (%) | Haematuria leading to dose interruption (After Coadministration): 0.0% | Haematuria ≥Grade 3 (After Coadministration): 0 (0.0%) n (%) | Hemorrhage AESI leading to dose interruption (After Coadministration): 2.8% | Hemorrhage AESI leading to dose reduction (After Coadministration): 0.9% | Hemorrhage AESI ≥Grade 3, EAIR (After Coadministration): 0.09 per 100 person-months | Hemorrhage AESI ≥Grade 3, patients (After Coadministration): 1.9% | Hemorrhage AESI, EAIR (After Coadministration): 1.39 per 100 person-months | Hemorrhage AESI, patients (After Coadministration): 23.4% | Hypertension AESI ≥Grade 3, EAIR (After Coadministration): 0.18 per 100 person-months | Hypertension AESI ≥Grade 3, patients (After Coadministration): 3.7% | Hypertension AESI, EAIR (After Coadministration): 0.37 per 100 person-months | Hypertension AESI, patients (After Coadministration): 7.5% | Infection AESI leading to dose reduction (After Coadministration): 1.9% | Infection AESI leading to treatment discontinuation (After Coadministration): 3.7% | Infection AESI ≥Grade 3, EAIR (After Coadministration): 1.45 per 100 person-months | Infection AESI, EAIR (After Coadministration): 9.70 per 100 person-months | Major hemorrhage AESI leading to dose interruption (After Coadministration): 0.9% | Major hemorrhage AESI ≥Grade 3, EAIR (After Coadministration): 0.09 per 100 person-months | Major hemorrhage AESI ≥Grade 3, patients (After Coadministration): 1.9% | Major hemorrhage AESI, EAIR (After Coadministration): 0.09 per 100 person-months | Major hemorrhage AESI, patients (After Coadministration): 1.9% | Malignant melanoma (After Coadministration): 1 (0.9%) n (%) | Neutropenia AESI leading to dose reduction (After Coadministration): 1.9% | Neutropenia AESI leading to treatment interruption (After Coadministration): 6.5% | Neutropenia AESI ≥Grade 3, EAIR (After Coadministration): 0.63 per 100 person-months | Neutropenia AESI ≥Grade 3, patients (After Coadministration): 20.1% | Neutropenia AESI, EAIR (After Coadministration): 0.92 per 100 person-months | Neutropenia AESI, patients (After Coadministration): 16.8% | Neutropenic sepsis PT (After Coadministration): 0.0% | Neutropenic sepsis ≥Grade 3 (After Coadministration): 0.0% | Neutrophil count decreased leading to dose reduction (After Coadministration): 0.0% | Opportunistic infection AESI leading to dose reduction (After Coadministration): 0.9% | Opportunistic infection AESI leading to treatment discontinuation (After Coadministration): 0.9% | Opportunistic infection AESI ≥Grade 3, EAIR (After Coadministration): 0.04 per 100 person-months | Opportunistic infection AESI ≥Grade 3, patients (After Coadministration): 1 (0.9%) n (%) | Opportunistic infection AESI, EAIR (After Coadministration): 0.13 per 100 person-months | Opportunistic infection AESI, patients (After Coadministration): 2.8% | Opportunistic infection SAEs, EAIR (After Coadministration): 0.04 per 100 person-months | Patients with at least 1 AESI (After Coadministration): 89 (83.2) n (%) | Petechiae (hemorrhage AESI) (After Coadministration): 0.0% | Platelet count decreased PT (After Coadministration): 4.7% | Platelet count decreased ≥Grade 3 (After Coadministration): 0.9% | Purpura (hemorrhage AESI) (After Coadministration): 0.0% | SAEs of opportunistic infections, patients (After Coadministration): 0.9% and 2.8% | Second primary malignancies AESI leading to dose interruption (After Coadministration): 5.6% | Second primary malignancies AESI leading to treatment discontinuation (After Coadministration): 2.8% | Second primary malignancies AESI ≥Grade 3, EAIR (After Coadministration): 0.27 per 100 person-months | Second primary malignancies AESI ≥Grade 3, patients (After Coadministration): 5.6% | Second primary malignancies AESI, EAIR (After Coadministration): 0.60 per 100 person-months | Second primary malignancies AESI, patients (After Coadministration): 12.1% | Serious anemia AESI, EAIR (After Coadministration): 0.04 per 100 person-months | Serious atrial fibrillation and flutter AESI, EAIR (After Coadministration): 0.09 per 100 person-months | Serious atrial fibrillation and flutter AESI, patients (After Coadministration): 1.9% | Serious external ear neoplasm malignant (After Coadministration): 0 (0.0%) n (%) | Serious haematuria (After Coadministration): 0 (0.0%) n (%) | Serious haematuria (major hemorrhage) (After Coadministration): 0 (0.0%) n (%) | Serious hemorrhage AESI, EAIR (After Coadministration): 0.09 per 100 person-months | Serious hemorrhage AESI, patients (After Coadministration): 1.9% | Serious infection AESI, EAIR (After Coadministration): 1.15 per 100 person-months | Serious major hemorrhage AESI, EAIR (After Coadministration): 0.09 per 100 person-months | Serious major hemorrhage AESI, patients (After Coadministration): 1.9% | Serious neutropenia AESI, EAIR (After Coadministration): 0.18 per 100 person-months | Serious neutropenia AESI, patients (After Coadministration): 3.7% | Serious neutropenic sepsis (After Coadministration): 0% | Serious neutrophil count decreased (After Coadministration): 0.0% | Serious second primary malignancies AESI, EAIR (After Coadministration): 0.13 per 100 person-months | Serious second primary malignancies AESI, patients (After Coadministration): 2.8% | Serious squamous cell carcinoma of skin (After Coadministration): 0 (0.0%) n (%) | Skin cancer AESI ≥Grade 3, EAIR (After Coadministration): 0.13 per 100 person-months | Skin cancer AESI, EAIR (After Coadministration): 0.41 per 100 person-months | Skin cancer AESI, patients (After Coadministration): 8.4% | Skin cancer SAE, EAIR (After Coadministration): 0.04 per 100 person-months | Squamous cell carcinoma of skin (After Coadministration): 0.9% | Squamous cell carcinoma of skin ≥Grade 3 (After Coadministration): 1 (0.9%) n (%) | Thrombocytopenia AESI leading to dose interruption (After Coadministration): 0.0% | Thrombocytopenia AESI ≥Grade 3, EAIR (After Coadministration): 0.13 per 100 person-months | Thrombocytopenia AESI ≥Grade 3, patients (After Coadministration): 2.8% | Thrombocytopenia AESI, EAIR (After Coadministration): 0.41 per 100 person-months | Thrombocytopenia AESI, patients (After Coadministration): 8.4% | Thrombocytopenia PT (After Coadministration): 3.7% | Anemia AESI ≥Grade 3, EAIR (During Coadministration): 1.70 per 100 person-months | Anemia AESI, EAIR (During Coadministration): 1.91 per 100 person-months | Atrial fibrillation PT (During Coadministration): 1.4% | Atrial fibrillation and flutter AESI Grade ≥3, EAIR (During Coadministration): 0.33 per 100 person-months | Atrial fibrillation and flutter AESI Grade ≥3, patients (During Coadministration): 1.4% | Atrial fibrillation and flutter AESI, EAIR (During Coadministration): 0.33 per 100 person-months | Atrial fibrillation and flutter AESI, patients (During Coadministration): 1.4% | Atrial flutter PT (During Coadministration): 0.0% | Basal cell carcinoma (During Coadministration): 0.0% | Basal cell carcinoma leading to dose interruption (During Coadministration): 0 (0.0%) n (%) | Basal cell carcinoma ≥Grade 3 (During Coadministration): 0 (0.0%) n (%) | Epistaxis (hemorrhage AESI) (During Coadministration): 1.4% | External ear neoplasm malignant leading to dose interruption (During Coadministration): 1 (0.7%) n (%) | Febrile neutropenia PT (During Coadministration): 2.9% | Grade 3 or higher AESI (During Coadministration): 36 (26.1) n (%) | Haematuria (hemorrhage AESI) (During Coadministration): 1.4% | Haematuria (major hemorrhage) (During Coadministration): 0 (0.0%) n (%) | Haematuria (major hemorrhage) ≥Grade 3 (During Coadministration): 0 (0.0%) n (%) | Haematuria leading to dose interruption (During Coadministration): 0 (0.0%) n (%) | Haematuria ≥Grade 3 (During Coadministration): 0 (0.0%) n (%) | Hemorrhage AESI leading to dose interruption (During Coadministration): 0.7% | Hemorrhage AESI ≥Grade 3, EAIR (During Coadministration): 0.16 per 100 person-months | Hemorrhage AESI ≥Grade 3, patients (During Coadministration): 0.7% | Hemorrhage AESI, EAIR (During Coadministration): 4.04 per 100 person-months | Hemorrhage AESI, patients (During Coadministration): 14.5% | Herpes zoster (During Coadministration): 2.2% | Hypertension AESI ≥Grade 3, EAIR (During Coadministration): 0.17 per 100 person-months | Hypertension AESI ≥Grade 3, patients (During Coadministration): 0.7% | Hypertension AESI, EAIR (During Coadministration): 0.70 per 100 person-months | Hypertension AESI, patients (During Coadministration): 2.9% | Infection AESI leading to dose reduction (During Coadministration): 1.4% | Infection AESI leading to treatment discontinuation (During Coadministration): 4.3% | Infection AESI ≥Grade 3, EAIR (During Coadministration): 5.83 per 100 person-months | Infection AESI, EAIR (During Coadministration): 16.79 per 100 person-months | Major hemorrhage AESI leading to dose interruption (During Coadministration): 0.7% | Major hemorrhage AESI ≥Grade 3, EAIR (During Coadministration): 0.16 per 100 person-months | Major hemorrhage AESI ≥Grade 3, patients (During Coadministration): 0.7% | Major hemorrhage AESI, EAIR (During Coadministration): 0.16 per 100 person-months | Major hemorrhage AESI, patients (During Coadministration): 0.7% | Malignant melanoma (During Coadministration): 0 (0.0%) n (%) | Neutropenia AESI leading to dose reduction (During Coadministration): 0.0% | Neutropenia AESI leading to treatment interruption (During Coadministration): 7.2% | Neutropenia AESI ≥Grade 3, EAIR (During Coadministration): 3.72 per 100 person-months | Neutropenia AESI ≥Grade 3, patients (During Coadministration): 12.3% | Neutropenia AESI, EAIR (During Coadministration): 5.43 per 100 person-months | Neutropenia AESI, patients (During Coadministration): 17.4% | Neutropenic sepsis PT (During Coadministration): 0.0% | Neutropenic sepsis ≥Grade 3 (During Coadministration): 0.0% | Neutrophil count decreased leading to dose reduction (During Coadministration): 0.0% | Opportunistic infection AESI leading to dose reduction (During Coadministration): 0.7% | Opportunistic infection AESI leading to treatment discontinuation (During Coadministration): 0.7% | Opportunistic infection AESI ≥Grade 3, EAIR (During Coadministration): 0.50 per 100 person-months | Opportunistic infection AESI ≥Grade 3, patients (During Coadministration): 3 (2.2%) n (%)

Source: US11911386B2, “Methods of treating B-cell proliferative disorder” (BeiGene Switzerland GmbH, priority 2022, dated 2024)
